Measured values reported in US6743795B1, “3-nitropyridine derivaives and the pharmaceutical compositions containing said derivatives” (Dong Wha Pharm. Ind. Co. Ltd., priority 1999, dated 2004).
Like-named read-outs stand apart in the source and are kept apart here.

What was measured:
HBV polymerase = biological target: T1, HBV polymerase (Hepatitis B virus genotype A2 subtype adw2, UniProt P03159); assay: In vitro reverse transcription activity of HBV polymerase (ELISA-type, DIG/biotin nucleotides); type: biochemical; settings: for inhibition at 0.01 µg/mL / inhibition at 0.1 µg/mL / inhibition at 1 µg/mL: read-out: Inhibition activity on HBV-RT (%)
T1 construct: made in house; host or cells: E. coli
Procedure: <Experiment 1> Inhibitory Effect on the In Vitro Activities of HBV Polymerase in Reverse Transcription
The following in vitro experiment was performed to determine the effect of the compounds of formula 1 on the activity of HBV polymerase during reverse transcription.
The present inventors submitted application for a patent concerning HBV polymerase genetically expressed in and separated from E.coli, the process of its preparation, and the method to measure the enzyme activities (KR 94-3918, KR 96-33998). In the present experiments HBV polymerase was used which had been expressed in E. coli as stated above.
The method used in the present invention to measure in vitro reverse transcribing activities of HBV polymerase is as follows. Basic principles are the same as for ELISA. Nucleotides with biotin or digoxigenin group attached are included as substrates and anti-DIG antibodies attached to peroxidase enzyme recognize the polymerized substrates.
To the wells coated with streptavidin, 20 μl of HBV polymerase, 20 μl of reaction mixture (10 μM each of DIG-UTP and Biotin-UTP, 46 mM Tris-HCl, 266 mM KCl, 27.5 mM MgCl2, 9.2 mM DTT substrate/primer nybrid), and 20 μl of test compound (added to 1, 0.1, and 0.01 μg/ml) were added and allowed to react at 22° C. for 15 hrs. During this reaction, HBV polymerase catalyzes DNA synthesis and digoxigenin and biotin attached to nucleotides form bonds with streptavidin coated on the bottom of wells. When the reaction was done, each well was washed with 250 μl of cleaning buffer (pH 7.0) for 30 seconds, which was repeated five times to remove remaining impurities. 200 μl of anti-DIG-POD antibody was added to each well and allowed to react for 1 hr at 37° C., and the wells were washed with cleaning buffer to remove impurities. 200 μl each of ABTS™, a substrate of peroxidase, was then added and allowed to react at room temperature for 30 min. Absorbance was measured at 405 nm using ELISA reader.
The percentage of reduction in HBV polymerase activities for reverse transcription was calculated using the group without test compound as a control and the results are shown in Table 3.

HBV = assay: Proliferation of HBV in HBV producing cell line HepG 2.2.15 (competitive PCR of culture supernatant); type: cell-based, Hepatitis B virus; settings: HepG 2.2.15, one week; for inhibition at 0.1 µg/mL / inhibition at 1 µg/mL / inhibition at 0.01 µg/mL: Hepatitis B virus, HepG2.2.15, 168 h, read-out: Inhibitory effect on the HBV proliferation: Inhibition activity on HBV-RT (%)
Procedure: <Experiment 2> Inhibitory Effect on the Proliferation of HBV in HBV Producing Cell Line
The following experiment was performed to determine inhibitory effects of compounds of formula 1 on the proliferation of HBV producing cell line.
To test for antiviral effect, replication and proliferation of HBV were measured in HepG 2.2.15, a human liver cancer cell line.
The cell concentration was adjusted to 1×10^5 cells/ml and 1 ml was added to each well of a 24-well cell culture plate, which was then kept in a culture box for 3-4 days at 37° C. under 5% CO2 until cells grew sufficiently, changing culture medium everyday. When the cells matured sufficiently, the test compounds were added to the final concentrations of 0.01, 0.1, and 1 μg/ml. One week after the addition of test compounds, the culture solution was centrifuged at 5,000 rpm for 10 min. 25 μl of supernatant was transferred to a new tube and 5 μl of lysis solution [0.54N NaOH, 0.06% NP40] was added to each tube. After keeping the tube at 37° C. for 1 hr, 30 μl of neutralizing solution [0.09N HCl 0.1MTris-HCl, pH7.4] was added as a reaction solution for competitive polymerase chain reaction (PCR).
PCR was performed using genetic sequence of HBV core protein as a matrix. PCR reaction was carried out by adding 1 unit of Taq polymerase enzyme to 25 pmol of each primer, 250 μM dNTP, 5 μl of PCR reaction solution [0.54N NaOH, 0. 06% NP40, 0.09N HCl, 0.1M Tris-HCl, pH 7.4].
DNA polymerized by PCR was electrophoresed on Agarose gel and quantitatively analyzed using an image analyzer (Gel Doc 1000, Bio-Rad) in order to evaluate the effect of compounds of the present invention on the reduction of HBV proliferation.
3TC (lamivudine) was used as a positive control at the same concentrations as those of the test compounds. The percentage of reduction in HBV proliferation was calculated using the group without test compound as a control and the results are represented in Table 4.

[1] = biological target: T2, HIV reverse transcriptase (Human immunodeficiency virus type 1 group M subtype B, UniProt P03366); assay: In vitro HIV reverse transcriptase activity (non-radioactive RT assay kit); type: biochemical
T2 construct: purchased Boehringer Mannheim
Procedure: <Experiment 3> Inhibitory Effect on the In Vitro HIV Enzyme Activities in Reverse Transcription
The following in vitro experiments were done to determine the effect of compounds of formula 1 on the reduction of HIV enzyme activities in reverse transcription.
Non-radioactive reverse transcriptase assay kit (Boehringer Mannheim) was used in the measurement of in vitro transcriptase activities. 20 μl (40 ng) of HIV transcriptase and 20 μl of reaction mixture containing matrix-primer hybrid poly(A)oligo(dT)15, DIG(digoxigenin)-dUTP, biotin-dUTP, and TTP were added to wells coated with streptavidin. Test compounds were also added at the final concentrations of 0.1 and 1 μg/ml and allowed to react at 37° C. for 1 hr. At this time, DNA is formed from RNA by the action of HIV reverse transcriptase, forming bonds with streptavidin coated on the bottom of wells because of digoxigenin and biotin moieties attached to nucleotides.
When the reaction was completed, each well was washed with 250 μl of cleaning buffer (pH7.0) for 30sec. five times to remove remaining impurities. 200 μl of anti-DIG-POD […] was added to each well, allowed to react at 37° C. for 1 hr and washed as above to remove impurities. 200 μl of ABTS™, a substrate for peroxidase, was added to each well and allowed to react at room temperature for 30 min. Absorbance at 405 nm was then read for each solution using ELISA reader and used for quantitative determination of inhibitory effect on the HIV transcriptase activities. The percentage of reduction in the activities of HIV reverse transcriptase was calculated using the group without test compound as control and the results are represented in Table 5.

HepG2 cells = assay: Cytotoxicity test on HepG2 cells (MTT); type: cell-based
Excerpt: (§1) <Experiment 4> Cytotoxicity Test

[2] = Cytotoxicity test on HepG2 cells (MTT); type: cell-based; settings: human; HepG2 cells, MTT; read-out: Cytotoxicity on HepG2, IC50 (50% Inhibitory Concentration)
Excerpt: as §1

T1 sequence (P03159 whole entry): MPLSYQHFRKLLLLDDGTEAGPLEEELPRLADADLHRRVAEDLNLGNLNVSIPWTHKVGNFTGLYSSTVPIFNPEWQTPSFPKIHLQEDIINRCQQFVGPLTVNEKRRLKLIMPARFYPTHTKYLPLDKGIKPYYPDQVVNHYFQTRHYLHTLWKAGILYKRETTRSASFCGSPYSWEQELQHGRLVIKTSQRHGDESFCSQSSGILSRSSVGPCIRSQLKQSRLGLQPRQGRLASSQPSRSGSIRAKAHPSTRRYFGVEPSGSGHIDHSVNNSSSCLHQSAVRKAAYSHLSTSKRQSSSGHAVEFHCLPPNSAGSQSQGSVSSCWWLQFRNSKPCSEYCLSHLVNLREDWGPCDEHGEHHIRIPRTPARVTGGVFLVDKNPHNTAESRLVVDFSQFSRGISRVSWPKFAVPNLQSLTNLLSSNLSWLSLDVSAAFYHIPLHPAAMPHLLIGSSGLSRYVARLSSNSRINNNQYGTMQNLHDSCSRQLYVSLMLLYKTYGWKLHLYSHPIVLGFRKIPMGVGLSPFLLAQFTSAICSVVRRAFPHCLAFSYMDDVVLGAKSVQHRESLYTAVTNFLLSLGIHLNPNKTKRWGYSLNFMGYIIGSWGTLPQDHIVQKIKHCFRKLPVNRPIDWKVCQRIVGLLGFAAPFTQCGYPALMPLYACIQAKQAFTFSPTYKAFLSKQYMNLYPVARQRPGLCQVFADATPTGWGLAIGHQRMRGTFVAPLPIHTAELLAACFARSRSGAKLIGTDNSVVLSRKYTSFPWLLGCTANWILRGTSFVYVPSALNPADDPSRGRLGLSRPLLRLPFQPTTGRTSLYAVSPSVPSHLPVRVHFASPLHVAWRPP

Molecule	Inhibition activity on HBV-RT (%) (HBV polymerase; 0.01 μg/ml test compound)	Inhibition activity on HBV-RT (%) (HBV polymerase; 0.1 μg/ml test compound)	Inhibition activity on HBV-RT (%) (HBV polymerase; 1 μg/ml test compound)	Inhibitory effect on the HBV proliferation: Inhibition activity on HBV-RT (%) (HBV; 0.01 μg/ml)	Inhibitory effect on the HBV proliferation: Inhibition activity on HBV-RT (%) (HBV; 0.1 μg/ml)	Inhibitory effect on the HBV proliferation: Inhibition activity on HBV-RT (%) (HBV; 1 μg/ml)	Inhibitory effect on the activities of HIV reverse transcriptase: Inhibition activity on HIV-RT (%) ([1]; 0.1 μg/ml test compound)	Inhibitory effect on the activities of HIV reverse transcriptase: Inhibition activity on HIV-RT (%) ([1]; 1 μg/ml test compound)	Cytotoxicity on HepG2, IC50 (50% Inhibitory Concentration) (HepG2 cells) [µg/mL]	Cytotoxicity on HepG2, MCD (Minimal Cytotoxic Concentration) (HepG2 cells) [µg/mL]	inhibition at 0.01 µg/mL (HBV polymerase; 0.01 μg/ml test compound) [%]	inhibition at 0.1 µg/mL (HBV polymerase; 0.1 μg/ml test compound) [%]	inhibition at 1 µg/mL (HBV polymerase; 1 μg/ml test compound) [%]	inhibition at 0.1 µg/mL (HBV; 0.1 μg/ml) [%]	inhibition at 1 µg/mL (HBV; 1 μg/ml) [%]	IC50 [2] [µg/mL]	Cytotoxicity on HepG2, MCD (Minimal Cytotoxic Concentration) (HepG2 cells; HepG2 cells, MTT) [µg/mL]	Cytotoxicity on HepG2, IC50 (50% Inhibitory Concentration) (HepG2 cells; HepG2 cells, MTT) [µg/mL]	inhibition at 0.01 µg/mL (HBV; 0.01 μg/ml) [%]	melting point
6-ethyl-(2-hydroxyethyl)amino-2-(1H-5-indazolylamino)-3-nitropyridine [Example 11]	35	60	85	20	45	83	46	67	>100	100	–	–	–	–	–	–	–	–	–	–
COc1ccc([N+](=O)[O-])c(Nc2ccc3cn[nH]c3c2)n1 [Example 2, 2-(1H-6-indazolylamino)-6-methoxy-3-nitropyridine]	–	–	–	–	–	–	–	–	–	–	12	50	76	40	72	> 100	100	–	–	–
CC(C)Nc1ccc([N+](=O)[O-])c(Nc2ccc3cn[nH]c3c2)n1 [Example 6, 2-(1H-6-indazolylamino)-6-isopropyl amino-3-nitropyridine]	49	76	91	33	72	90	50	69	–	–	–	–	–	–	–	–	100	>100	–	–
C[C@@H](CCO)Nc1ccc([N+](=O)[O-])c(Nc2ccc3[nH]ncc3c2)n1 [Example 12, 6-[(1S)-1-(hydroxyethyl)ethylamino]-2-(1H-5-indazolylamino)-3-nitropyridine]	–	–	–	–	–	–	40	64	–	–	38	56	90	48	85	–	–	–	29	> 270 °C
O=[N+]([O-])c1ccc(NC(CO)CO)nc1Nc1ccc2[nH]ncc2c1 [Example 14, 6-[bis(hydroxymethyl)methylamino)-2-(1H-5-indazolylamino)-3-nitropyridine]	–	–	–	–	–	–	44	59	–	–	30	49	85	41	80	–	–	–	22	> 270 °C
O=[N+]([O-])c1ccc(NCc2cccnc2)nc1Nc1ccc2cn[nH]c2c1 [Example 20, 2-(1H-6-indazolylamino)-3-nitro-6-(3-pyridyl)methylaminopyridine]	–	–	–	–	–	–	53	84	–	–	21	40	66	–	–	–	–	–	–	> 270 °C
O=[N+]([O-])c1ccc(N2CCNCC2)nc1Nc1ccc2[nH]ncc2c1 [Example 23, 2-(1H-5-indazolylamino)-3-nitro-6-(1-piperazinyl)pyridine]	–	–	–	–	–	–	–	–	–	–	51	66	96	55	92	–	–	–	35	270 °C (dec.)
O=[N+]([O-])c1ccc(NN2CCOCC2)nc1Nc1ccc2[nH]ncc2c1 [Example 30, 2-(1H-5-indazolylamino)-6-(4-morpholinyl)amino-3-nitropyridine]	–	–	–	–	–	–	–	–	–	–	32	49	71	–	–	–	–	–	–	> 270 °C
